We go through 19 molecules from US20080293712A1, “Benzo[C][2,7]Naphtyridine Derivatives, Methods of Making Thereof and Methods of Use Thereof” (WYETH, priority 2007, published 2008).

Common to all, as to type: biochemical
In test [1] the target is T1, PDK-1 (Homo sapiens, UniProt O15530).
T1 sequence (O15530 1-556): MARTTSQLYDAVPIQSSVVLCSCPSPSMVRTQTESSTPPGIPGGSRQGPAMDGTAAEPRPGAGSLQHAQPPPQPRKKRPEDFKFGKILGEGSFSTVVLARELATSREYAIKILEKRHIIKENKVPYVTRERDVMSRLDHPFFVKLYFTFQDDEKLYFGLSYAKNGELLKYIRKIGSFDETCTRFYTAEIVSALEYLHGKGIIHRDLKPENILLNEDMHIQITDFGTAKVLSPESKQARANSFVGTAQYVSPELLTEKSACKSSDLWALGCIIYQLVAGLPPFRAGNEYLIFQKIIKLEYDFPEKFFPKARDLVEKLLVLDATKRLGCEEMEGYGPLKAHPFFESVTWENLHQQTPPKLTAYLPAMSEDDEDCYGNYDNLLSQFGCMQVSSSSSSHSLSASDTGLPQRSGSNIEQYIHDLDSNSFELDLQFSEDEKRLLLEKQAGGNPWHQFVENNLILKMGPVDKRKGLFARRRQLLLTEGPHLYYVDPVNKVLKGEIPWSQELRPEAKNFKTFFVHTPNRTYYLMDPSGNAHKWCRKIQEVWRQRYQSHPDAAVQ
Briefly: PDK-1 kinase inhibition ELISA assay (phosphorylation of His6-tagged SGK1 S422D by PDK-1). The following applies: PDK-1 ELISA, Table 11; read-out: Average IC50. On the technique in general: An ELISA detects its analyte on a solid surface through an enzyme-linked reagent.
Method: In an in vitro assay, His6-tagged SGK1 with S422D mutation (formerly Upstate Biotech, now Millipore) on Thr256 is allowed to be phosphorylated by PDK-1 in the presence of a Benzo[c][2,7]naphthyridine Derivative. After 20 minutes, the reaction is quenched via the addition of urea. The His6-tagged SGK1 is then bound to 96 well Ni-NTA HisSorb plates (Quiagen, Inc., Valencia, Calif.) and phosphorylated SGK1 is quantitatively detected using rabbit derived anti-phospho SGK antibody (Cell Signaling Technology, Danvers, Mass.) as the primary antibody and horseradish peroxidase (HRP)—coupled anti-rabbit antibody (formerly Zymed, now Invitrogen, Carlsbad, Calif.) as the secondary antibody. HRP is then detected using a chemiluminescent substrate (Pierce Chemical Co., Woburn, Mass.).

In test [2] the target is PKA (Homo sapiens, UniProt P17612). Briefly: PKA kinase inhibition, Z'-LYTE FRET assay.
The target in test [3] is S6K (Homo sapiens, UniProt P23443). Briefly: S6K kinase inhibition, Z'-LYTE FRET assay. Conditions: 100 μM ATP. From the text: (§1) The ability of illustrative Benzo[c][2,7]naphthyridine Derivatives to inhibit PKA, Akt1, S6K in vitro can be determined using a Fluorescence Resonance Energy Transfer (FRET) assay, such as a Z′-LYTE™ Kinase Assay Platform, commercially available from Invitrogen (c.f. Rodems et al., ASSAY Drug Devel. Technol. 1:9-19 (2002) and Zhang et al., J. Biomol. Screen. 4:67-73 (1999)). Z′-Lyte™ assay is an in vitro FRET-based assay that utilizes differential sensitivity of phosphorylated and non-phosphorylated peptides to proteolytic cleavage. The peptide substrate (also available from Invitrogen for each of PKA, Akt1 and S6K) is labeled with two different fluorophores, a fluorescence donor at one end of the peptide and a fluorescence acceptor at the other end of the peptide. In the primary kinase reaction, the kinase phosphorylates the peptide substrate in the presence of ATP. In the secondary reaction, a site-specific protease recognizes and cleaves non-phosphorylated peptides, but not phosphorylated peptides. Cleavage disrupts FRET between the donor and acceptor fluorophores on the peptide, whereas uncleaved phosphorylated peptides maintain FRET. Based on a formula that uses the ratio of donor emission (at 460 nm) to acceptor emission (at […]) after excitation of the donor fluorophore at 400 nm, the extent of phosphorylation of the peptide substrates is calculated. IC50 values of illustrative Benzo[c][2,7]naphthyridine Derivatives, shown in Table 12, are calculated using LSW Data Analysis package add-in for Excel (Microsoft).

Test [4] addresses Akt1 (Homo sapiens, UniProt P31749). Description: Akt1 kinase inhibition, Z'-LYTE FRET assay. The following applies: 100 μM ATP.
Excerpt: as §1

Molecules are shown by their SMILES.

Sequence of S6K (P23443 whole entry): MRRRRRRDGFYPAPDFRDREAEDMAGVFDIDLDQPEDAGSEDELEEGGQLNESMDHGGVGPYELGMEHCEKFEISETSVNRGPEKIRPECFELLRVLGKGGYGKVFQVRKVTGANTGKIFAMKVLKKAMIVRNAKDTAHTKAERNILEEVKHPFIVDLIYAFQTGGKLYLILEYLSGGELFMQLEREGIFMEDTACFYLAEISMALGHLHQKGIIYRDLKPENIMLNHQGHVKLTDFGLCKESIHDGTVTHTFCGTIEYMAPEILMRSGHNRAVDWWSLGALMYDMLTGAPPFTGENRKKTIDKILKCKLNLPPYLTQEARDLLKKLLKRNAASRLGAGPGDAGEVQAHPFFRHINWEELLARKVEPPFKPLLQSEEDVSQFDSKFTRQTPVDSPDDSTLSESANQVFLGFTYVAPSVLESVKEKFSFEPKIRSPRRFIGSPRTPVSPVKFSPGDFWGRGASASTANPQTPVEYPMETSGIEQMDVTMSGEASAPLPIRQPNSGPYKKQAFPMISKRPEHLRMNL
Sequence of Akt1 (P31749 whole entry, species assumed): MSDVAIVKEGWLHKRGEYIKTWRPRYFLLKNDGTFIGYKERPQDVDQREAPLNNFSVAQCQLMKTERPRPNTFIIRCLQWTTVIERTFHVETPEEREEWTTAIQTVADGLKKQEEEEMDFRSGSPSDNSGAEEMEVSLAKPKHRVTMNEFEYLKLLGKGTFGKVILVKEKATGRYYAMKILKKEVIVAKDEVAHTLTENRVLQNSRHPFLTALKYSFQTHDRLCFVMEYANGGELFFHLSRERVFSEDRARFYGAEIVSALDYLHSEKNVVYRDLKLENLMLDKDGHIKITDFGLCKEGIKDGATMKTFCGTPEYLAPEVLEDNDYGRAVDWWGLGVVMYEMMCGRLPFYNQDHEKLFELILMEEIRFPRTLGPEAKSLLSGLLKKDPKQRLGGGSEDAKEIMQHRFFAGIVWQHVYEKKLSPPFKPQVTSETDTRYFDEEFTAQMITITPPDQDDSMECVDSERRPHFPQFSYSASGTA

In general, IC50 refers to the concentration that inhibits the measured activity by half. `Nc1nc(-c2cncc(OC[C@@H](N)Cc3ccccc3)c2)cc2c1cnc1cc(/C=C/CCN3CCCC3)ccc12` [Ia-4, 2-(5-{[(2S)-2-amino-3-phenylpropyl]oxy}pyridin-3-yl)-8-[(1E)-4-pyrrolidin-1-ylbut-1-en-1-yl]benzo[c]-2,7-naphthyridin-4-amine]: the IC50 in test [1] was 27 nM; in test [2] (20 μM ATP) it was less than 32 nM; in test [2] (100 μM ATP) it was 70 nM; in test [3], 89 nM.
Regarding `Nc1nc(-c2cncc(OC[C@@H](N)Cc3ccccc3)c2)cc2c1cnc1cc(C#CCCn3ccnc3)ccc12` [Ia-5, 2-(5-{[(2S)-2-Amino-3-phenylpropyl]oxy}pyridin-3-yl)-8-[4-(1H-imidazol-1-yl)but-1-yn-1-yl]benzo[c]-2,7-naphthyridin-4-amine], the IC50 in test [2] (20 μM ATP) came to 340 nM; in test [2] (100 μM ATP) it was 872 nM; in test [4], 500 nM; in test [3] it was 520 nM.
`COc1cc2c(cc1OCCCCl)ncc1c(N)nc(-n3ccnc3)cc12` [Ia-17, 8-(3-Chloropropoxy)-2-(1H-imidazol-1-yl)-9-methoxybenzo[c][2,7]naphthyridin-4-amine]: the IC50 is 105 nM in test [1]; greater than 10000 nM in test [2] (20 μM ATP); greater than 2000 nM in test [2] (100 μM ATP); 280 nM in test [4]; greater than 2000 nM in test [3].
On to `COc1cc2ncc3c(N)nc(-c4cncc(OC[C@@H](N)Cc5ccc(NC(=O)OCc6ccccc6)cc5)c4)cc3c2cc1OC` [Ib-23], for which the IC50 in test [1] is greater than 100 nM; in test [2] (100 μM ATP), greater than 2000 nM; in test [3], greater than 2000 nM.
As for `COc1cc2ncc3c(N)nc(-c4cncc(OC[C@@H](N)Cc5cccc(C(F)(F)F)c5)c4)cc3c2cc1OC` [Ib-24, 2-[5-({(2S)-2-amino-3-[3-(trifluoromethyl)phenyl]propyl}oxy)pyridin-3-yl]-8,9-dimethoxybenzo[c]-2,7-naphthyridin-4-amine], the IC50 was 13 nM in test [1], 198 to 219 nM in test [2] (100 μM ATP) and 169 to 194 nM in test [3].
With `COc1cc2ncc3c(N)nc(-c4cncc(OC[C@@H](N)CN(C)Cc5ccccc5)c4)cc3c2cc1OC` [Ib-27, (2S)-3-{[5-(4-amino-8,9-dimethoxybenzo[c]-2,7-naphthyridin-2-yl)pyridin-3-yl]oxy}-N1-benzyl-N1-methylpropane-1,2-diamine], the IC50 was 6 nM in test [1], 110 to 217 nM in test [2] (100 μM ATP) and 37 to 43 nM in test [3].
Turning to `COc1cc2ncc3c(N)nc(-c4cncc(C#CCN(C)Cc5ccccc5)c4)cc3c2cc1OC` [Ib-32, 2-(5-{3-[Benzyl(methyl)amino]prop-1-yn-1-yl}pyridin-3-yl)-8,9-dimethoxybenzo[c]-2,7-naphthyridin-4-amine], the IC50 in test [1] is 850 nM; in test [2] (100 μM ATP) it was greater than 2000 nM; in test [3], greater than 2000 nM.
Take `COc1cc2ncc3c(N)nc(-c4cncc(O[C@@H]5CCCNC5)c4)cc3c2cc1OC` [Ib-33, 8,9-dimethoxy-2-{5-[(3R)-piperidin-3-yloxy]pyridin-3-yl}benzo[c]-2,7-naphthyridin-4-amine]: the concentration for half-maximal inhibition (IC50) came out at 8 nM in test [1], 368 nM in test [2] (100 μM ATP) and 138 nM in test [3].
For `COCCN(C[C@H](N)COc1cncc(-c2cc3c(cnc4cc(OC)c(OC)cc43)c(N)n2)c1)c1ccccc1` [Ib-34, (2S)-3-{[5-(4-amino-8,9-dimethoxybenzo[c]-2,7-naphthyridin-2-yl)pyridin-3-yl]oxy}-N1-(2-methoxyethyl)-N1-phenylpropane-1,2-diamine], the IC50 in test [1] was 6 nM; in test [2] (20 μM ATP) it was less than 32 nM; in test [2] (100 μM ATP), 116 nM; in test [3] it was 61 to 130 nM.
For `COc1cc2ncc3c(N)nc(-c4cncc(OC[C@@H]5CN(c6cccc(F)c6)C(=O)N5)c4)cc3c2cc1OC` [Ib-35, (4S)-4-({[5-(4-amino-8,9-dimethoxybenzo[c]-2,7-naphthyridin-2-yl)pyridin-3-yl]oxy}methyl)-1-(3-fluorophenyl)imidazolidin-2-one] the same measures were 206 nM, greater than 4000 nM, greater than 2000 nM and no less than 1740 nM.
Regarding `COc1cc2ncc3c(N)nc(-c4cncc(OC[C@@H](N)CNc5cccc(F)c5)c4)cc3c2cc1OC` [Ib-36, (2S)-3-{[5-(4-amino-8,9-dimethoxybenzo[c]-2,7-naphthyridin-2-yl)pyridin-3-yl]oxy}-N1-(3-fluorophenyl)propane-1,2-diamine], the IC50 in test [1] is 4 nM; in test [2] (20 μM ATP), less than 32 nM; in test [2] (100 μM ATP), 223 nM; in test [3], 30 to 133 nM.
For `COc1cc2ncc3c(N)nc(-c4cncc(OC[C@@H](N)CN5CCNC(=O)C5)c4)cc3c2cc1OC` [Ib-37, 4-((2S)-2-amino-3-{[5-(4-amino-8,9-dimethoxybenzo[c]-2,7-naphthyridin-2-yl)pyridin-3-yl]oxy}propyl)piperazin-2-one] the same measures were 18 nM, 850 nM, greater than 2000 nM and 523 to 821 nM.
For `COCCN(C)C[C@H](N)COc1cncc(-c2cc3c(cnc4cc(OC)c(OC)cc43)c(N)n2)c1` [Ib-38, (2S)-3-{[5-(4-amino-8,9-dimethoxybenzo[c]-2,7-naphthyridin-2-yl)pyridin-3-yl]oxy}-N1-(2-methoxyethyl)-N1-methylpropane-1,2-diamine], in that order: 9 nM, 210 nM, 1040 nM and 213 to 365 nM.
`COc1cc2ncc3c(N)nc(-c4cncc(O[C@H]5CCCNC5)c4)cc3c2cc1OC` [Ib-39, 8,9-dimethoxy-2-{5-[(3S)-piperidin-3-yloxy]pyridin-3-yl}benzo[c]-2,7-naphthyridin-4-amine]: the half-maximal inhibitory concentration (IC50) in test [1] was 84 nM; in test [2] (20 μM ATP), greater than 4000 nM; in test [2] (100 μM ATP), greater than 2000 nM; in test [3] it was no less than 1700 nM.
For `COc1cc2ncc3c(N)nc(-c4cncc(OC5CCNCC5)c4)cc3c2cc1OC` [Ib-40, 8,9-Dimethoxy-2-[5-(piperidin-4-yloxy)pyridin-3-yl]benzo[c]-2,7-naphthyridin-4-amine] the same measures were 117 nM, greater than 4000 nM, greater than 2000 nM and greater than 2000 nM.
Take `COc1cc2ncc3c(N)nc(-c4cncc(OC[C@@H](N)Cc5ccc(F)cc5)c4)cc3c2cc1OC` [Ib-41, 2-(5-{[(2S)-2-amino-3-(4-fluorophenyl)propyl]oxy}pyridin-3-yl)-8,9-dimethoxybenzo[c]-2,7-naphthyridin-4-amine]: the IC50 is 3 nM in test [1], less than 32 nM in test [2] (20 μM ATP), 183 nM in test [2] (100 μM ATP) and 21 to 102 nM in test [3].
Turning to `COc1cc2ncc3c(N)nc(-c4cncc(OC[C@@H](N)Cc5ccc(Cl)c(Cl)c5)c4)cc3c2cc1OC` [Ib-44, 2-(5-{[(2S)-2-amino-3-(3,4-dichlorophenyl)propyl]oxy}pyridin-3-yl)-8,9-dimethoxybenzo[c]-2,7-naphthyridin-4-amine], the figures for the IC50 in test [1], in test [2] (20 μM ATP) and in test [3] were 6 nM, less than 32 nM and 19 nM, respectively.
Consider `COc1cc2ncc3c(N)nc(-c4cncc(OC[C@@H](N)CN5CCOCC5)c4)cc3c2cc1OC` [Ib-45, 2-(5-{[(2S)-2-amino-3-morpholin-4-ylpropyl]oxy}pyridin-3-yl)-8,9-dimethoxybenzo[c]-2,7-naphthyridin-4-amine], for which the IC50 was 25 nM in test [1], 650 nM in test [2] (20 μM ATP), greater than 2000 nM in test [2] (100 μM ATP) and 725 nM in test [3].
For `COc1cc2ncc3c(N)nc(-c4cncc(OC[C@@H](N)CN5CCc6ccccc65)c4)cc3c2cc1OC` [Ib-46, 2-(5-{[(2S)-2-amino-3-(2,3-dihydro-1H-indol-1-yl)propyl]oxy}pyridin-3-yl)-8,9-dimethoxybenzo[c]-2,7-naphthyridin-4-amine], in that order: 8 nM, less than 32 nM, 179 nM and 65 nM.
